Counter-ions that a name gives are not always drawn. Like-named read-outs stand apart in the source and are kept apart here.
Legend:
Format in all cases: biochemical
Human plasma [1] = test: Human plasma anticoagulation, activated partial thromboplastin time (APTT); settings: concentration required to double the APTT, linear extrapolation
Procedure: (§1) Dog plasma and rat plasma is obtained from conscious mixed-breed hounds (either sex, Hazelton-LRE, Kalamazoo, Mich., U.S.A.) or from anesthetized male Sprague-Dawley rats (Harlan Sprague-Dawley, Inc., Indianapolis, Ind., U.S.A.) by venipuncture into 3.8 percent citrate. Fibrinogen is prepared from in-date ACD human blood as the fraction I-2 according to previous procedures and specifications. […] Human fibrinogen is also purchased as 98 percent pure/plasmin free from American Diagnostica, Greenwich, Conn. Coagulation reagents ACTIN, Thromboplastin, and Human plasma are from Baxter Healthcare Corp., Dade Division, Miami, Fla. Bovine thrombin from Parke-Davis ([…], Mich.) is used for coagulation assays in plasma.
(§2) Coagulation assay procedures are as previously described. […] A CoAScreener coagulation instrument (American LABor, Inc.) is used for all coagulation assay measurements. The prothrombin time (PT) is measured by adding 0.05 mL saline and 0.05 mL Thromboplastin-C reagent to 0.05 mL test plasma. The activated partial thromboplastin time (APTT) is measured by incubation of 0.05 mL test plasma with 0.05 mL Actin reagent for 120 seconds followed by 0.05 mL CaCl2 (0.02M). The thrombin time (TT) is measured by adding 0.05 mL saline and 0.05 mL thrombin (10 NIH units/mL) to 0.05 mL test plasma. The compounds of Formula I are added to human or animal plasma over a wide range of concentrations to determine prolongation effects on the APTT, PT, and TT assays. Linear extrapolations are performed to estimate the concentrations required to double the clotting time for each assay.

factor Xa = target: T1, factor Xa (Homo sapiens, UniProt P00742); test: Kass with factor Xa, chromogenic substrate; settings: substrate N-Benzoyl-Ile-Glu-Gly-Arg-p-nitroanilide
T1 construct: Human factors X, Xa, IXa, XIa, and XIIa are purchased; purchased Enzyme Research Laboratories, South Bend, Ind
Procedure: (§3) By substantially following the procedures described above for human thrombin, and using other human blood coagulation system serine proteases and proteases of the fibrinolytic system with the appropriate chromogenic substrates, identified below, selectivity of the compounds of the present invention with respect to the coagulation factor serine proteases and with respect to the fibrinolytic system serine proteases are evaluated as well as their substantial lack of interference with serine proteases of the fibrinolytic system. Thrombin inhibitors preferably should spare fibrinolysis induced by urokinase, tissue plasminogen activator (t-PA) and streptokinase. This would be important to the therapeutic use of such agents as an adjunct to streptokinase, t-PA or urokinase thrombolytic therapy and to the use of such agents as an endogenous fibrinolysis-sparing (with respect to t-PA and urokinase) antithrombotic agent. In addition to the lack of interference with the amidase activity of the fibrinolytic proteases, such fibrinolytic system sparing can be studied by the use of human plasma clots and their lysis by the respective fibrinolytic plasminogen activators.
(§4) Human factors X, Xa, IXa, XIa, and XIIa are purchased from Enzyme Research Laboratories, South Bend, Ind.; human urokinase from Leo Pharmaceuticals, Denmark; and recombinant activated Protein C (aPC) is prepared at Eli Lilly and Co. substantially according to U.S. Patent No. 4,981,952. Chromogenic substrates: N-Benzoyl-Ile-Glu-Gly-Arg-p-nitroanilide (for factor Xa); N-Cbz-D-Arg-Gly-Arg-p-nitroanilide (for factor IXa assay as the factor Xa substrate); Pyroglutamyl-Pro-Arg-p-nitroanilide (for Factor XIa and for aPC); H-D-Pro-Phe-Arg-p-nitroanilide (for factor XIIa); and Pyroglutamyl-Gly-Arg-p-nitroanilide (for urokinase); are purchased from KabiVitrum, Stockholm, Sweden, or from Midwest Biotech, Fishers, Ind. Bovine trypsin is purchased from Worthington Biochemicals, Freehold, N.J., and human plasma kallikrein from Kabi Vitrum, Stockholm, Sweden. Chromogenic substrate H-D-Pro-Phe-Arg-p-nitroanilide for plasma kallikrein is purchased from Kabi Vitrum, Stockholm, Sweden. N-Benzoyl-Phe-Val-Arg-p-nitroanilide, the substrate for human thrombin and for trypsin, is synthesized according to procedures described above for the compounds of the present invention, using known methods of peptide coupling from commercially available reactants or purchased from Midwest Biotech, Fishers, Ind.

Human Thrombin = Human Thrombin (Homo sapiens, UniProt P00734); test: Inhibition of amidase activity of thrombin (Kass)
Human plasmin = target: T2, Human plasmin (Homo sapiens, UniProt P00747); test: Kass with plasmin, chromogenic substrate; settings: substrate H-D-Val-Leu-Lys-p-nitroanilide
T2 construct: Human plasmin is purchased; purchased Boehringer Mannheim, Indianapolis, Ind
Procedure: as §3
Human plasmin is purchased from Boehringer Mannheim, Indianapolis, Ind.; nt-PA is purchased as single chain activity reference from American Diagnostica, Greenwich, Conn. modified-t-PA6 (mt-PA6) is prepared at Eli Lilly and Company by procedure known in the art (See, Burck, et al., J. Biol. Chem., 265, […] (1990). Plasmin chromogenic substrate H-D-Val-Leu-Lys-p-nitroanilide and tissue plasminogen activator (t-PA) substrate H-D-Ile-Pro-Arg-p-nitroanilide are purchased from Kabi Vitrum, Stockholm, Sweden.

Bovine trypsin = target: T3, Bovine trypsin (Bos taurus, UniProt P00760); test: Kass with trypsin, chromogenic substrate; settings: substrate N-Benzoyl-Phe-Val-Arg-p-nitroanilide
T3 construct: Bovine trypsin is purchased; purchased Worthington Biochemicals, Freehold, N.J
T3 sequence (P00760 24-246): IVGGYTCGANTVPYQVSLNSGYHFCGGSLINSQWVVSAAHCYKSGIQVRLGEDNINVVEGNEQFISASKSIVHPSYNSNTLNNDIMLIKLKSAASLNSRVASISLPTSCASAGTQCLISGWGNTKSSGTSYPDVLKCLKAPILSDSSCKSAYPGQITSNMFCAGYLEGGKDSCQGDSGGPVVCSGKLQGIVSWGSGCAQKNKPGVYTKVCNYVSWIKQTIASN
Procedure: as §3, §4

Human plasma [2] = test: Human plasma anticoagulation, prothrombin time (PT); settings: concentration required to double the PT, linear extrapolation
Procedure: as §1, §2

Human plasma [3] = test: Human plasma anticoagulation, thrombin time (TT); settings: concentration required to double the thrombin time, linear extrapolation
Procedure: as §1, §2

[4] = mean over a range of concentrations, […]

T2 sequence (P00747 97-810): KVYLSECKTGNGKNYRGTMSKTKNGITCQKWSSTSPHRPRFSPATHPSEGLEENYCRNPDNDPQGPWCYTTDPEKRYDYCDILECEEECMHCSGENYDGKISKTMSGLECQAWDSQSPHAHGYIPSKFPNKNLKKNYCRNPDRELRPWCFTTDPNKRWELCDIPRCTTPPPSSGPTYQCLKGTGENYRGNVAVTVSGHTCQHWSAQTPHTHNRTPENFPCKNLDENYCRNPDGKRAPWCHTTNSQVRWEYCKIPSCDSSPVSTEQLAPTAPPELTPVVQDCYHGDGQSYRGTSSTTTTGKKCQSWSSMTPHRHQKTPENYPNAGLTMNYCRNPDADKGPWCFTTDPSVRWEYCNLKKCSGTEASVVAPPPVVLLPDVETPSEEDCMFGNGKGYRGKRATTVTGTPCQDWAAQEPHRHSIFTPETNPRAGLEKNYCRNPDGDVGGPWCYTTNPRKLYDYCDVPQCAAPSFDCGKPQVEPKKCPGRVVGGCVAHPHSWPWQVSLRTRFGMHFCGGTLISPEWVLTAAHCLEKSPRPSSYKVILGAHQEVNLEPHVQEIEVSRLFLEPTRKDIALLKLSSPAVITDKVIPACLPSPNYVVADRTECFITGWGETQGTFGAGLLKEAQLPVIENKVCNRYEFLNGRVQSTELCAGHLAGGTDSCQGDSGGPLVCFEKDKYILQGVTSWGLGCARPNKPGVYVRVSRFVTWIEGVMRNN
T2 sequence (P00747 97-580 partner limits assumed): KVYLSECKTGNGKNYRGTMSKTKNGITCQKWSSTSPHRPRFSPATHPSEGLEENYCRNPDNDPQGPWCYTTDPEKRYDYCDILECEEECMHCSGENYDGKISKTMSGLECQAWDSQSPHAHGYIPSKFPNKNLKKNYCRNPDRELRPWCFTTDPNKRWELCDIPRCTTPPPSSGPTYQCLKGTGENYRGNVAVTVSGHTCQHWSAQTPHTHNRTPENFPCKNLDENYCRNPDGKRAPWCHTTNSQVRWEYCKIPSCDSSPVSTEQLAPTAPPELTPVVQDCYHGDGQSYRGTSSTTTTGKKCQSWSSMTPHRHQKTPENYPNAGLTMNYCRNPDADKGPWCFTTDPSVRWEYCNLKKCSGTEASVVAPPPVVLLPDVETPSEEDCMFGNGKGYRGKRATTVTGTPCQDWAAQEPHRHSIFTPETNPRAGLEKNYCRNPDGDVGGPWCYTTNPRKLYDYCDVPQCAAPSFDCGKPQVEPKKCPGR
T1 sequence (P00742 235-488 limits assumed): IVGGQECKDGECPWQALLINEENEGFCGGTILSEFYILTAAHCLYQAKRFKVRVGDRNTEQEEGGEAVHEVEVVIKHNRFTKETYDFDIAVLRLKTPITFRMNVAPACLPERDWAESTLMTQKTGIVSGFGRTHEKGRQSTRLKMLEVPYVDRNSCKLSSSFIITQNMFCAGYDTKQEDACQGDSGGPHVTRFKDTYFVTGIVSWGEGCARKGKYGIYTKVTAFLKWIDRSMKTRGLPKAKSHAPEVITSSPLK
T1 sequence (P00742 41-179 partner limits assumed): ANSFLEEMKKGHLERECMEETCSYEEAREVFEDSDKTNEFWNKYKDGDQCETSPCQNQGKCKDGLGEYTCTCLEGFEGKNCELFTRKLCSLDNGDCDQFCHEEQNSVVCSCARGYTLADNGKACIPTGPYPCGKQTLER

SMILES | Human Plasma Anticoagulation 2× Clotting time APTT (Human plasma [1]) | Kass Xa (factor Xa) | Kass Human Thrombin (Human Thrombin) | Kass Plasmin (Human plasmin) | Kass Trypsin (Bovine trypsin) | Human Plasma Anticoagulation 2× Clotting time PT (Human plasma [2]) | Human Plasma Anticoagulation 2× Clotting time TT (Human plasma [3]) | Kass Human Thrombin (Human Thrombin; [4])
N=C(N)c1ccc(CNC(=O)[C@@H]2C[C@@H]3CCCC[C@@H]3N2C(=O)[C@@H]2NCC[C@@H]3CCCC[C@@H]32)cc1 (relative stereo) [Example 42, D-1-Piq-cis-Ohi-p-NHCH2 C6 H4 C(NH)NH2.2HCl] | 270 ng/mL | 0.07 × 10^6 (L/mole) | 38 | 0.12 × 10^6 (L/mole) | 43 × 10^6 (L/mole) | 320 ng/mL | 20 ng/mL | –
N=C(N)c1ccc(CNC(=O)[C@@H]2C[C@@H]3CCCC[C@@H]3N2C(=O)[C@H]2C[C@H]3CCCC[C@H]3CN2)cc1 (relative stereo) [Example 43, D-3-Piq-cis-Ohi-p-NHCH2 C6 H4 C(NH)NH2.2HCl] | 1,100 ng/mL | 0.05 × 10^6 (L/mole) | – | 0.30 × 10^6 (L/mole) | 100 × 10^6 (L/mole) | 930 ng/mL | 280 ng/mL | 1.4 × 10^6 (L/mole)
N=C(N)c1ccc(CNC(=O)[C@@H]2C[C@@H]3CCCC[C@@H]3N2C(=O)[C@@H](Cc2ccccc2)NCC(=O)O)cc1 (relative stereo) [Example 47, HOOCCH2 -D-Phe-cis-Ohi-p-NHCH2 C6 H4 C(NH)NH2.HCl] | 140 ng/mL | 0.04 × 10^6 (L/mole) | 45 | 0.18 × 10^6 (L/mole) | 82 × 10^6 (L/mole) | 270 ng/mL | 12 ng/mL | –
N=C(N)c1cccc(CNC(=O)[C@@H]2CCCN2C(=O)[C@@H]2NCC[C@@H]3CCCC[C@@H]32)c1 [Example 25, D-1-Piq-Pro-m-NHCH2 --C6 H4 C(=NH)NH2.HCl] | 34,600 ng/mL | < 0.001 × 10^6 (L/mole) | – | < 0.001 × 10^6 (L/mole) | 0.01 × 10^6 (L/mole) | 40,400 ng/mL | 1,430 ng/mL | 0.43 × 10^6 (L/mole)
CCS(=O)(=O)N[C@H](Cc1ccccc1)C(=O)N1CCC[C@H]1C(=O)NCCc1ccc(C(=N)N)cc1 [Example 26, EtSO2 -D-Phe-Pro-p-NHCH2 CH2 --C6 H4 C(=NH)NH2.HCl] | 870 ng/mL | 0.01 × 10^6 (L/mole) | – | 0.01 × 10^6 (L/mole) | 0.21 × 10^6 (L/mole) | 750 ng/mL | 37 ng/mL | 13 × 10^6 (L/mole)
N=C(N)c1ccc(CCCNC(=O)[C@@H]2CCCN2C(=O)[C@@H]2NCC[C@@H]3CCCC[C@@H]32)cc1 [Example 32, 1-Piq-Pro-p-NHCH2 CH2 CH2 --C6 H4 C(=NH)NH2.HCl] | 28,500 ng/mL | 0.03 × 10^6 (L/mole) | – | < 0.001 × 10^6 (L/mole) | 0.04 × 10^6 (L/mole) | 47,800 ng/mL | 3,100 ng/mL | 0.13 × 10^6 (L/mole)
CCS(=O)(=O)N[C@H](Cc1ccccc1)C(=O)N1CCC[C@H]1C(=O)NCc1ccc(NC(=N)N)cc1 [Example 34, EtSO2 -D-Phe-Pro-p-NHCH2 C6 H4 NHC(NH)NH2.HCl] | 4,900 ng/mL | < 0.001 × 10^6 (L/mole) | – | 0.01 × 10^6 (L/mole) | 0.49 × 10^6 (L/mole) | 5,500 ng/mL | 530 ng/mL | 0.65 × 10^6 (L/mole)
N=C(N)Nc1ccc(CNC(=O)[C@@H]2CCCN2C(=O)[C@@H]2NCC[C@@H]3CCCC[C@@H]32)cc1 [Example 38, D-1-Piq-Pro-p-NHCH2 C6 H4 NHC(NH)NH2.2HCl] | 6,100 ng/mL | < 0.001 × 10^6 (L/mole) | – | < 0.001 × 10^6 (L/mole) | 0.07 × 10^6 (L/mole) | 11,100 ng/mL | 540 ng/mL | 1.1 × 10^6 (L/mole)
N=C(N)Nc1ccc(CCNC(=O)[C@@H]2CCCN2C(=O)[C@@H]2NCC[C@@H]3CCCC[C@@H]32)cc1 [Example 39, D-1-Piq-Pro-p-NHCH2 CH2 C6 H4 NHC(NH)NH2.2HCl] | 69,200 ng/mL | < 0.001 × 10^6 (L/mole) | – | < 0.001 × 10^6 (L/mole) | < 0.02 × 10^6 (L/mole) | 78,600 ng/mL | 5,300 ng/mL | 0.12 × 10^6 (L/mole)
N=C(N)Nc1cccc(CNC(=O)[C@@H]2CCCN2C(=O)[C@@H]2NCC[C@@H]3CCCC[C@@H]32)c1 [Example 40, D-1-Piq-Pro-m-NHCH2 C6 H4 NHC(NH)NH2.2HCl] | > 91,000 ng/mL | < 0.001 × 10^6 (L/mole) | – | < 0.001 × 10^6 (L/mole) | 0.01 × 10^6 (L/mole) | > 91,000 ng/mL | 35,100 ng/mL | 0.03 × 10^6 (L/mole)
N=C(N)Nc1cccc(CCNC(=O)[C@@H]2CCCN2C(=O)[C@@H]2NCC[C@@H]3CCCC[C@@H]32)c1 [Example 41, D-1-Piq-Pro-m-NHCH2 CH2 C6 H4 NHC(NH)NH2.2HCl] | > 91,000 ng/mL | < 0.001 × 10^6 (L/mole) | – | < 0.001 × 10^6 (L/mole) | < 0.001 × 10^6 (L/mole) | > 91,000 ng/mL | 82,200 ng/mL | 0.01 × 10^6 (L/mole)
